Source: patent US8557796B2, “Substituted 1-oxa-2,8-diaza-spiro [4,5] dec-2-ene derivatives and related treatment methods” (Gruenenthal GmbH, priority 2001, dated 2013)

tested on: batrachotoxin (BTX) binding site (binding site 2) of the sodium channel; test: Bond test on the sodium channel, binding site 2 (BTX bond), [3H]-batrachotoxinin A20 α-benzoate displacement; conditions: rat cerebrocortex synaptosomes

| SMILES | BTX bond, 10 μM, % inhibition |
| --- | --- |
| CCOC(=O)N1CCC(NC(=O)C2=NOC3(CCN(C(=O)C4CC4c4ccccc4)CC3)C2)CC1 (stereo not shown) [Example 55, 4-{[8-(2-phenyl-cyclopropanecarbonyl)-1-oxa-2,8-diaza-spiro[4,5]dec-2-ene-3-carbonyl]-amino}-piperidine-1-carboxylic acid ethyl ester] | 47% |
| O=C(NCc1cccs1)C1=NOC2(CCN(C(=O)c3ccc(SC(F)(F)F)cc3)CC2)C1 [Example 135, 8-(4-trifluoromethylsulphanyl-benzoyl)-1-oxa-2,8-diaza-spiro[4,5]dec-2-ene-3-carboxylic acid (thiophen-2-ylmethyl)-amide] | 85% |
| Cc1ccc(S(=O)(=O)N2CCC3(CC2)CC(C(=O)N2CCN(C(C)c4ccccc4)CC2)=NO3)cc1 (stereo not drawn) [Example 32, [4-(1-phenyl-ethyl)-piperazin-l-yl]-[8-(toluene-4-sulphonyl)-1-oxa-2,8-diaza-spiro[4,5]dec-2-en-3-yl]-methanone] | 66% |
| O=C(NC1CCCC1)C1=NOC2(CCN(C(=O)c3cccnc3Oc3ccccc3)CC2)C1 [Example 153, 8-(2-phenoxy-pyridine-3-carbonyl)-1-oxa-2,8-diaza-spiro[4,5]dec-2-ene-3-carboxylic acid cyclopentylamide] | 41% |
| O=C(NCc1cccs1)C1=NOC2(CCN(S(=O)(=O)c3ccccc3Cl)CC2)C1 [Example 156, 8-(2-chloro-benzenesulphonyl)-1-oxa-2,8-diaza-spiro[4,5]dec-2-ene-3-carboxylic acid (thiophen-2-ylmethyl)-amide] | 70% |
| O=C(C1=NOC2(CCN(S(=O)(=O)c3cccc(C(F)(F)F)c3)CC2)C1)N1CCN(c2cc(C(F)(F)F)ccn2)CC1 [Example 119] | 72% |
| CC(C)CC(NC(=O)C1=NOC2(CCN(S(=O)(=O)c3cccc(C(F)(F)F)c3)CC2)C1)C(=O)OC(C)(C)C (stereo not shown) [Example 214, 4-methyl-2-{[8-(3-trifluoromethyl-benzenesulphonyl)-1-oxa-2,8-diaza-spiro[4,5]dec-2-ene-3-carbonyl]-amino}-pentanoic acid tert-butyl ester] | 61% |
| Cc1cc(C(=O)N2CCC3(CC2)CC(C(=O)NCC(C)C)=NO3)ccc1Br [Example 88, 8-(4-bromo-3-methyl-benzoyl)-1-oxa-2,8-diaza-spiro[4,5]dec-2-ene-3-carboxylic acid isobutyl-amide] | 45% |
| O=C(NC1CCCC1OCc1ccccc1)C1=NOC2(CCN(S(=O)(=O)Cc3ccccc3)CC2)C1 (stereo not shown) [Example 20, 8-phenylmethanesulphonyl-1-oxa-2,8-diaza-spiro[4,5]dec-2-ene-3-carboxylic acid (2-benzyloxy-cyclopentyl)-amide] | 69% |
| Cc1ccc(S(=O)(=O)N2CCC3(CC2)CC(C(=O)N2CCN(c4ccc(C)cc4C)CC2)=NO3)cc1 [Example 33, [4-(2,4-dimethyl-phenyl)-piperazin-l-yl]-[8-(toluene-4-sulphonyl)-1-oxa-2,8-diazaspiro[4,5]dec-2-en-3-yl]methanone] | 67% |
| O=C(NCc1ccccc1)C1=NOC2(CCN(C(=O)c3cccc(SC(F)F)c3)CC2)C1 [Example 180, 8-(3-difluoromethylsulphanyl-benzoyl)-1-oxa-2,8-diaza-spiro[4,5]dec-2-ene-3-carboxylic acid benzylamide] | 57% |
| O=C(NCc1cccs1)C1=NOC2(CCN(C(=O)c3cccc(Cl)c3)CC2)C1 [Example 208] | 74% |
| Cc1ccccc1N1CCN(C(=O)C2=NOC3(CCN(S(=O)(=O)c4cccs4)CC3)C2)CC1 [Example 27, [8-(thiophene-2-sulphonyl)-1-oxa-2,8-diaza-spiro[4,5]dec-2-en-3-yl]-(4-o-tolyl-piperazin-1-yl)-methanone] | 74% |
| C=CCOC(=O)C(CC(=O)OC(C)(C)C)NC(=O)C1=NOC2(CCN(S(=O)(=O)c3cc(Cl)ccc3Cl)CC2)C1 (stereo not shown) [Example 53] | 47% |
| Cc1onc(-c2c(Cl)cccc2Cl)c1C(=O)N1CCC2(CC1)CC(C(=O)NCc1cccs1)=NO2 [Example 197, 8-[3-(2,6-dichloro-phenyl)-5-methyl-isoxazole-4-carbonyl]-1-oxa-2,8-diaza-spiro[4,5]dec-2-ene-3-carboxylic acid (thiophen-2-ylmethyl)-amide] | 70% |
| CCSc1ncccc1C(=O)N1CCC2(CC1)CC(C(=O)NCc1ccccc1)=NO2 [Example 115, 8-(2-ethylsulphanyl-pyridine-3-carbonyl)-1-oxa-2,8-diaza-spiro[4,5]dec-2-ene-3-carboxylic acid benzylamide] | 48% |
| O=C(NCCN1CCCC1)C1=NOC2(CCN(S(=O)(=O)c3ccc(F)c(Cl)c3)CC2)C1 [Example 11] | 69% |

| SMILES | BTX bond, 10 μM, % inhibition |
| --- | --- |
| COC(=O)C(Cc1c[nH]c2ccccc12)NC(=O)C1=NOC2(CCN(S(=O)(=O)c3ccc(OC(F)(F)F)cc3)CC2)C1 (stereo not shown) [Example 1, 3-(1H-indo1-3-yl)-2-{[8-(4-trifluoromethoxy-benzene-sulphonyl)-1-oxa-2,8-diaza-spiro[4,5]dec-2-ene-3-carbonyl]-amino}-propionic acid methyl ester] | 68% |
| CC(Cc1ccc(Cl)cc1)NC(=O)C1=NOC2(CCN(S(=O)(=O)c3ccc(Cl)s3)CC2)C1 (stereo not shown) [Example 168, 8-(5-chloro-thiophene-2-sulphonyl)-1-oxa-2,8-diaza-spiro[4,5]dec-2-ene-3-carboxylic acid [2-(4-chloro-phenyl)-1-methyl-ethyl]-amide] | 69% |
| CC(=O)N1CCC2(CC1)CC(C(=O)NCc1ccccc1)=NO2 [Example 48, 8-acetyl-1-oxa-2,8-diaza-spiro[4,5]dec-2-ene-3-carboxylic acid benzylamide] | 43% |
| Cc1ccc(S(=O)(=O)N2CCC3(CC2)CC(C(=O)NCc2cc(Cl)cc(Cl)c2)=NO3)cc1 [Example 63, 8-(toluene-4-sulphonyl)-1-oxa-2,8-diaza-spiro[4,5]dec-2-ene-3-carboxylic acid 3,5-dichlorobenzylamide] | 38% |
| O=C(NCc1ccccc1)C1=NOC2(CCN(C(=O)c3ccncc3)CC2)C1 [Example 102, 8-(pyridine-4-carbonyl)-1-oxa-2,8-diaza-spiro[4,5]dec-2-ene-3-carboxylic acid benzylamide] | 43% |
| CC(Oc1ccccc1)C(=O)N1CCC2(CC1)CC(C(=O)NCc1ccccc1)=NO2 (stereo not shown) [Example 149, 8-(2-phenoxy-propionyl)-1-oxa-2,8-diaza-spiro[4,5]dec-2-ene-3-carboxylic acid benzylamide] | 40% |
| O=C(NCc1ccccc1F)C1=NOC2(CCN(S(=O)(=O)c3ccc(F)cc3)CC2)C1 [Example 207, 8-(4-fluoro-benzenesulphonyl)-1-oxa-2,8-diaza-spiro[4,5]dec-2-ene-3-carboxylic acid 2 fluorobenzylamide] | 56% |
| CCCC(=O)N1CCC2(CC1)CC(C(=O)NC1CCN(C(=O)OCC)CC1)=NO2 [Example 74, 4-[(8-butyryl-1-oxa-2,8-diaza-spiro[4,5]dec-2-ene-3-carbonyl)-amino]-piperidine-l-carboxylic acid ethyl ester] | 47% |
| Cc1ccc(F)c(C(=O)N2CCC3(CC2)CC(C(=O)NCc2cccs2)=NO3)c1F [Example 170, 8-(2,6-difluoro-3-methyl-benzoyl)-1-oxa-2,8-diaza-spiro[4,5]dec-2-ene-3-carboxylic acid (thiophen-2-ylmethyl)-amide] | 59% |
| O=C(NCc1ccccc1)C1=NOC2(CCN(C(=O)COc3cccc(Cl)c3)CC2)C1 [Example 166, 8-[2-(3-chloro-phenoxy)-acetyl]-1-oxa-2,8-diaza-spiro[4,5]dec-2-ene-3-carboxylic acid benzylamide] | 58% |
| CCc1ccc(C(=O)N2CCC3(CC2)CC(C(=O)NCc2cccs2)=NO3)cc1 [Example 52, 8-(4-ethyl-benzoyl)-1-oxa-2,8-diaza-spiro[4,5]dec-2-ene-3-carboxylic acid (thiophen-2-ylmethyl)-amide] | 63% |
| CC1CCCCN1CCCNC(=O)C1=NOC2(CCN(S(=O)(=O)c3cc(Cl)ccc3Cl)CC2)C1 (stereo not shown) [Example 15, 8-(2,5-dichloro-benzenesulphonyl)-1-oxa-2,8-diaza-spiro[4,5]dec-2-ene-3-carboxylic acid[3-(2-methyl-piperidin-1-yl)-propyl]-amide] | 88% |
| Cc1ccc(S(=O)(=O)N2CCC3(CC2)CC(C(=O)NCCN(C)C)=NO3)cc1 [Example 57, 8-(toluene-4-sulphonyl)-1-oxa-2,8-diaza-spiro[4,5]dec-2-ene-3-carboxylic acid (2-dimethylamino-ethyl)-amide] | 45% |
| Cc1cc(C(=O)N2CCC3(CC2)CC(C(=O)NCc2ccccc2)=NO3)c(C)o1 [Example 217, 8-(2,5-dimethyl-furan-3-carbonyl)-1-oxa-2,8-diaza-spiro[4,5]dec-2-ene-3-carboxylic acid benzylamide] | 51% |
| CN(C)S(=O)(=O)N1CCC2(CC1)CC(C(=O)N1CCN(Cc3ccc4ccccc4c3)CC1)=NO2 [Example 65, 3-(4-naphthalen-2-ylmethyl-piperazine-1-carbonyl)-1-oxa-2,8-diaza-spiro[4,5]dec-2-ene-8-sulphonic acid dimethylamide] | 67% |
| COc1ccc(Br)cc1S(=O)(=O)N1CCC2(CC1)CC(C(=O)NC1CCCC1)=NO2 [Example 173, 8-(5-bromo-2-methoxy-benzenesulphonyl)-1-oxa-2,8-diaza-spiro[4,5]dec-2-ene-3-carboxylic acid cyclopentylamide] | 62% |

same assay, conditions: rat cerebrocortex synaptosomes, 10 µM

| SMILES | BTX bond, 10 μM, % inhibition |
| --- | --- |
| COc1ccc(S(=O)(=O)N2CCC3(CC2)CC(C(=O)NC2CCCC2OCc2ccccc2)=NO3)cc1 (stereo not shown) [Example 169, 8-(4-methoxy-benzenesulphonyl)-1-oxa-2,8-diaza-spiro[4,5]dec-2-ene-3-carboxylic acid (2-benzyloxy-cyclopentyl)-amide] | 48% |
